We go through twelve compounds from patent US12049518B2, “Pharmacokinetics and cholecystokinin-2 receptor (CCK2R) targeting for diagnosis and therapy” (Medizinische Universitat Innsbruck, priority 2017, dated 2024).

Where a SMILES comes first, the peptide text is derived from it. [ ]: non-standard residue; d: D form. The star is where a group is joined. DOTA = O=C(O)CN1CCN(CC(=O)O)CCN(CC(=O)*)CCN(CC(=O)O)CC1; 1Nal = N[C@@H](Cc1cccc2ccccc12)C(=O)O; NMeNle = CCCC[C@H](NC)C(=O)O

For series [1], the system named is serum proteins. Nature of the series: protein binding to serum proteins (Sephadex G-50 size-exclusion chromatography). In kind it is in vitro ADME. The following applies: 37° C.; for fraction unbound at 4 h, 500 pmol/mL / fraction unbound at 24 h, 500 pmol/mL: fresh human serum; for fraction unbound at 4 h, 500 pmol/mL: read-out: Percentage of radioligand bound to serum proteins after 4 h incubation (converted); for fraction unbound at 24 h, 500 pmol/mL: read-out: Percentage of radioligand bound to serum proteins after 24 h incubation (converted); for Percentage of radioligand bound to serum proteins after 24 h incubation: human serum. The protocol: Additionally, protein binding to serum proteins was investigated. For this purpose the ^111In-labelled peptidomimetics were incubated in duplicates in fresh human serum at 37° C. (500 pmol/mL) and analyzed after 4 and 24 h by Sephadex G-50 size-exclusion chromatography (GE Healthcare Illustra, Little Chalfont, UK). The percentage of protein binding was determined by measuring the column and the eluate in a 2480 Wizard 2 automatic gamma-counter (Perkin Elmer Life Sciences and Analytical Sciences, Turku, F).
Background: In gel filtration, larger molecules generally elute earlier.

Series [2] can be described thus: stability in vivo (radio-HPLC of blood sample). Particulars: BALB/c mice, i.v. The procedure: To further characterise the stability of the radiolabelled peptidomimetics in vivo, metabolic studies were carried out in 5-6-week-old female BALB/c mice (Charles River, Sulzfeld, Germany) injected intravenously with the ^111In- and […] peptidomimetics. All animal experiments were conducted in compliance with the Austrian animal protection laws and with the approval of the Austrian Ministry of Science. To allow monitoring of the metabolites by radio-HPLC, mice were injected with a higher amount of radioactivity (5-15 MBq ^111In and 20-40 MBq ^177Lu, corresponding to 1-2 nmol total peptide) through a lateral tail vein and euthanized by cervical dislocation 10 or 30 min post injection (p.i.). A sample of blood was collected and the degradation was assessed by radio-HPLC.

As to `CSCC[C@H](NC(=O)[C@H](Cc1c[nH]c2ccccc12)NC(=O)CNC(=O)[C@H](Cc1ccc(O)cc1)NC(=O)[C@H](C)NC(=O)[C@@H](CCC(=O)O)NC(=O)CN1CCN(CC(=O)O)CCN(CC(=O)O)CCN(CC(=O)O)CC1)C(=O)N[C@@H](CC(=O)O)C(=O)N[C@@H](Cc1cccc2ccccc12)C(N)=O` [^111In-DOTA-MGS1, ^111In-DOTA-DGlu-Ala-Tyr-Gly-Trp-Met-Asp-1Nal-NH2, metal not drawn, reference compound] ({DOTA}-[dE]AYGWMD[1Nal]-NH2), in series [1], the fraction unbound at 4 h, 500 pmol/mL is 0.8 and the fraction unbound at 24 h, 500 pmol/mL was 0.712.
On to `CCCC[C@@H](C(=O)N[C@@H](CC(=O)O)C(=O)N(C)[C@@H](Cc1ccccc1)C(N)=O)N(C)C(=O)[C@H](Cc1c[nH]c2ccccc12)NC(=O)CNC(=O)[C@H](Cc1ccc(O)cc1)NC(=O)[C@H](C)NC(=O)[C@@H](CCC(=O)O)NC(=O)CN1CCN(CC(=O)O)CCN(CC(=O)O)CCN(CC(=O)O)CC1` [^111In-DOTA-MGS4, ^111In-DOTA-DGlu-Ala-Tyr-Gly-Trp-(N-Me)Nle-Asp-(N-Me)Phe-NH2, metal not drawn, reference compound], for which, in series [1], the fraction unbound at 4 h, 500 pmol/mL is 0.911; the fraction unbound at 24 h, 500 pmol/mL was 0.881; the “Percentage of radioligand bound to serum proteins after 24 h incubation” value (from here on “Percentage of radioligand bound”) is about 12%.
Regarding `CCCC[C@@H](C(=O)N[C@@H](CC(=O)O)C(=O)N[C@@H](Cc1cccc2ccccc12)C(N)=O)N(C)C(=O)[C@H](Cc1c[nH]c2ccccc12)NC(=O)CNC(=O)[C@H](Cc1ccc(O)cc1)NC(=O)[C@H](C)NC(=O)[C@@H](CCC(=O)O)NC(=O)CN1CCN(CC(=O)O)CCN(CC(=O)O)CCN(CC(=O)O)CC1` [^111In-DOTA-MGS5, metal not drawn], in series [1], the fraction unbound at 4 h, 500 pmol/mL was 0.59 and the fraction unbound at 24 h, 500 pmol/mL is 0.557. Also, the “intact radioligand present in the blood at 10 min p.i.” value in series [2] turned out to be 82.7±3.3%.
Consider `CCCC[C@@H](C(=O)N[C@@H](CC(=O)O)C(=O)N[C@@H](Cc1ccc2ccccc2c1)C(N)=O)N(C)C(=O)[C@H](Cc1c[nH]c2ccccc12)NC(=O)CNC(=O)[C@H](Cc1ccc(O)cc1)NC(=O)[C@H](C)NC(=O)[C@@H](CCC(=O)O)NC(=O)CN1CCN(CC(=O)O)CCN(CC(=O)O)CCN(CC(=O)O)CC1` [^111In-DOTA-MGS5-2, metal not drawn], for which, in series [1], the fraction unbound at 4 h, 500 pmol/mL was 0.683; the fraction unbound at 24 h, 500 pmol/mL was 0.654; the “Percentage of radioligand bound” value is reported as about 30%. Moreover, the “intact radioligand present in the blood at 10 min p.i.” value in series [2] was 88.4±0.4%.
Take `CCCC[C@@H](C(=O)N[C@@H](CC(=O)O)C(=O)N[C@@H](Cc1cccc2ccccc12)C(N)=O)N(C)C(=O)[C@H](Cc1c[nH]c2ccccc12)NC(=O)CNC(=O)[C@H](Cc1ccc(O)cc1)NC(=O)[C@@H]1CCCN1C(=O)[C@@H](CCC(=O)O)NC(=O)CN1CCN(CC(=O)O)CCN(CC(=O)O)CCN(CC(=O)O)CC1` [^111In-DOTA-MGS8, metal not drawn] ({DOTA}-[dE]PYGW[NMeNle]D[1Nal]-NH2): the “intact radioligand present in the blood at 10 min p.i.” value in series [2] stood at 80.0±5.2%.
Take `CCCC[C@@H](C(=O)N[C@@H](CC(=O)O)C(=O)N[C@@H](Cc1cccc2ccccc12)C(N)=O)N(C)C(=O)[C@H](Cc1c[nH]c2ccccc12)NC(=O)CNC(=O)[C@@H]1CCCN1C(=O)[C@H](Cc1ccc(O)cc1)NC(=O)[C@@H](CCC(=O)O)NC(=O)CN1CCN(CC(=O)O)CCN(CC(=O)O)CCN(CC(=O)O)CC1` [^111In-DOTA-MGS10, metal not drawn] ({DOTA}-[dE]YPGW[NMeNle]D[1Nal]-NH2): the fraction unbound at 4 h, 500 pmol/mL in series [1] was 0.433. The “intact radioligand present in the blood at 10 min p.i.” value in series [2] came to 82.3±1.8%.
`CCCC[C@@H](C(=O)N[C@@H](CC(=O)O)C(=O)N(C)[C@@H](Cc1cccc2ccccc12)C(N)=O)N(C)C(=O)[C@H](Cc1c[nH]c2ccccc12)NC(=O)CNC(=O)[C@H](Cc1ccc(O)cc1)NC(=O)[C@H](C)NC(=O)[C@@H](CCC(=O)O)NC(=O)CN1CCN(CC(=O)O)CCN(CC(=O)O)CCN(CC(=O)O)CC1` [^111In-DOTA-MGS11, metal not drawn]: in series [1], the fraction unbound at 4 h, 500 pmol/mL is 0.681; the fraction unbound at 24 h, 500 pmol/mL was 0.602; the “Percentage of radioligand bound” value is about 30%. Besides, the “intact radioligand present in the blood at 10 min p.i.” value in series [2] was 98.4±0.1%.
Regarding `CCCC[C@@H](C(=O)N[C@@H](CC(=O)O)C(=O)N[C@@H](Cc1cccc2ccccc12)C(N)=O)N(C)C(=O)[C@H](Cc1c[nH]c2ccccc12)NC(=O)[C@@H]1CCCN1C(=O)[C@H](Cc1ccc(O)cc1)NC(=O)[C@H](C)NC(=O)[C@@H](CCC(=O)O)NC(=O)CN1CCN(CC(=O)O)CCN(CC(=O)O)CCN(CC(=O)O)CC1` [^111In-DOTA-MGS12, metal not drawn] ({DOTA}-[dE]AYPW[NMeNle]D[1Nal]-NH2), the fraction unbound at 24 h, 500 pmol/mL in series [1] was 0.541.
Consider `CCCC[C@@H](C(=O)N[C@@H](CC(=O)O)C(=O)N[C@@H](Cc1cccc2ccccc12)C(N)=O)N(C)C(=O)[C@H](Cc1c[nH]c2ccccc12)NC(=O)CNC(=O)[C@H](Cc1ccc(O)cc1)NC(=O)[C@H](C)NC(=O)[C@@H](CCC(=O)O)NC(=O)CN1CCN(CC(=O)O)CCN(CC(=O)O)CCN(CC(=O)O)CC1` [^177Lu-DOTA-MGS5, metal not drawn], for which, in series [2], the “intact radioligand present in the blood at 10 min p.i.” value is listed as 85.9% and the “intact radioligand present in the blood at 30 min p.i.” value is listed as 77.0%.
In the case of `CCCC[C@@H](C(=O)N[C@@H](CC(=O)O)C(=O)N[C@@H](Cc1cccc2ccccc12)C(N)=O)N(C)C(=O)[C@H](Cc1c[nH]c2ccccc12)NC(=O)CNC(=O)[C@H](Cc1ccc(O)cc1)NC(=O)[C@@H]1CCCN1C(=O)[C@@H](CCC(=O)O)NC(=O)CN1CCN(CC(=O)O)CCN(CC(=O)O)CCN(CC(=O)O)CC1` [^177Lu-DOTA-MGS8, metal not drawn] ({DOTA}-[dE]PYGW[NMeNle]D[1Nal]-NH2), in series [2], the “intact radioligand present in the blood at 10 min p.i.” value is reported as 80.5% and the “intact radioligand present in the blood at 30 min p.i.” value was 56.8%.
For the compound `CSCC[C@H](NC(=O)[C@H](Cc1c[nH]c2ccccc12)NC(=O)CNC(=O)[C@H](Cc1ccc(O)cc1)NC(=O)[C@H](C)NC(=O)[C@@H](CCC(=O)O)NC(=O)[C@@H](CCC(=O)O)NC(=O)[C@@H](CCC(=O)O)NC(=O)[C@@H](CCC(=O)O)NC(=O)[C@@H](CCC(=O)O)NC(=O)[C@@H](CCC(=O)O)NC(=O)CN1CCN(CC(=O)O)CCN(CC(=O)O)CCN(CC(=O)O)CC1)C(=O)N[C@@H](CC(=O)O)C(=O)N[C@@H](Cc1ccccc1)C(N)=O` [^177Lu-PP-F11, metal not drawn, reference compound], the “intact radioligand present in the blood at 30 min p.i.” value in series [2] stood at 5.5%.
`CCCC[C@H](NC(=O)[C@H](Cc1c[nH]c2ccccc12)NC(=O)CNC(=O)[C@H](Cc1ccc(O)cc1)NC(=O)[C@H](C)NC(=O)[C@@H](CCC(=O)O)NC(=O)[C@@H](CCC(=O)O)NC(=O)[C@@H](CCC(=O)O)NC(=O)[C@@H](CCC(=O)O)NC(=O)[C@@H](CCC(=O)O)NC(=O)[C@@H](CCC(=O)O)NC(=O)CN1CCN(CC(=O)O)CCN(CC(=O)O)CCN(CC(=O)O)CC1)C(=O)N[C@@H](CC(=O)O)C(=O)N[C@@H](Cc1ccccc1)C(N)=O` [^177Lu-PP-F11N, metal not drawn, reference compound]: in series [2], the “intact radioligand present in the blood at 10 min p.i.” value is reported as 22.3% and the “intact radioligand present in the blood at 30 min p.i.” value stood at 12.7%.
